According to PMC3159548 (Biochemical pharmacology, 2011):
Where “and” joins values, the source holds several entries; their conditions need not be identical. Identical values can stand only once. Counter-ions that a name gives are not always drawn. Like-named read-outs stand apart in the source and are kept apart here.

Experiments:
CYP2C8.1 [1] = biological target: T1, CYP2C8.1 (Homo sapiens, UniProt P10632); conditions: ref [8], cited from earlier work; for Clint: kcat/Km
T1 sequence (P10632 1-490): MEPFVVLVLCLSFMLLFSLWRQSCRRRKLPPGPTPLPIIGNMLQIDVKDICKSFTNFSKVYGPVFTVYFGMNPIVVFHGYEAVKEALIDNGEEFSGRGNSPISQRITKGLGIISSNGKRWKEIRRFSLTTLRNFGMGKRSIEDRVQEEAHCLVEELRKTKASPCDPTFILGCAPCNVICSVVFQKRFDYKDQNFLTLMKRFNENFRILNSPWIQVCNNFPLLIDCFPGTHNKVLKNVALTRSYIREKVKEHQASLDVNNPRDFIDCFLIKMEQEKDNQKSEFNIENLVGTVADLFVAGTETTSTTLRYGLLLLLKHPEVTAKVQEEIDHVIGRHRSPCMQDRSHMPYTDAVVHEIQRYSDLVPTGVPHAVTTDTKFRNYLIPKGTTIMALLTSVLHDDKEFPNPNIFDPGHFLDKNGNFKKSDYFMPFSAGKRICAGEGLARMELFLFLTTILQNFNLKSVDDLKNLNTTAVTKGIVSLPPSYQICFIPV

CYP2C8 = conditions: excess of cytochrome b5 (up to 10:1)
[2] = biological target: T2, P450 reductase - CYP2C8.3 complex (Homo sapiens, UniProt P10632, K399R/R139K); conditions: probe reaction of each substrate
T2 sequence (P10632 1-490 R139K/K399R): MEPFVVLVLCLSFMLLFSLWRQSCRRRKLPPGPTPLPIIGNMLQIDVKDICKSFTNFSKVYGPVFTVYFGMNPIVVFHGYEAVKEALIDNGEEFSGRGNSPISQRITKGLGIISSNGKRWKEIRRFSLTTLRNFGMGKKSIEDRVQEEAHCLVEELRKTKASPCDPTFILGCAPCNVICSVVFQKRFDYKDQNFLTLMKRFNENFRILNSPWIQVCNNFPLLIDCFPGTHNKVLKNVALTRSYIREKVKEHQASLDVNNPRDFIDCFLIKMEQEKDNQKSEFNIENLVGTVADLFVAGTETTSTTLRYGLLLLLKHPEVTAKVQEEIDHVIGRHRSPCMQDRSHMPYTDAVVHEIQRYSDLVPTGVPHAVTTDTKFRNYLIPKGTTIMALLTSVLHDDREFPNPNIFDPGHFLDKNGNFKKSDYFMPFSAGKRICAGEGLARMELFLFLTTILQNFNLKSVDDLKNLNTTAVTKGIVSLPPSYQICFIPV

CYP2C8.3 [3] = biological target: T3, CYP2C8.3 (Homo sapiens, UniProt P10632, K399R/R139K); conditions: ref [8], cited from earlier work; for Clint: kcat/Km
T3 sequence (P10632 1-490 R139K/K399R): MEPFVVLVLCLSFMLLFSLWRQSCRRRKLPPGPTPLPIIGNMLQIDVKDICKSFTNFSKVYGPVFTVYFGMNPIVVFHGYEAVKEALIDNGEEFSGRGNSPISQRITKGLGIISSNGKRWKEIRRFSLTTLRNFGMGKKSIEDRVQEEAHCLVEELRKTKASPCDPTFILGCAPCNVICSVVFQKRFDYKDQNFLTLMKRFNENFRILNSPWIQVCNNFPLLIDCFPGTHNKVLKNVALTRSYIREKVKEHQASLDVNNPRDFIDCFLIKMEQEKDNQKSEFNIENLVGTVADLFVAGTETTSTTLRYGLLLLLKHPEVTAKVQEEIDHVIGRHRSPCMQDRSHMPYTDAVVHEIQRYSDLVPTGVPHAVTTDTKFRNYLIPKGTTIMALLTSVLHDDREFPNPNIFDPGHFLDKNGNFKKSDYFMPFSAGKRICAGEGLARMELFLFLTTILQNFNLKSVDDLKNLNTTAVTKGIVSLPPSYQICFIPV

CYP2C8.3 [4] = biological target: T3, CYP2C8.3; test: Equilibrium spectral binding of ligands and redox cofactors to purified CYP2C8.3; conditions: for % change in Bmax, first binding event / % change in Bmax, second binding event / % change in Bmax, redox partner binding: CYP2C8.3 in comparison to CYP2C8.1; for Kd: read-out: KD of redox partner, spectral binding of redox partner to CYP2C8.3
CYP2C8.3 [5] = biological target: T3, CYP2C8.3; conditions: for Clint: kcat/Km
CYP2C8.3 [6] = biological target: T3, CYP2C8.3
CYP2C8.1 [7] = biological target: T1, CYP2C8.1; conditions: for Clint: kcat/Km
CYP2C8.3 [8] = biological target: T3, CYP2C8.3; conditions: absence of cytochrome b5 in the reconstitution system; CPR:CYP2C8 2:1
CYP2C8.1 [9] = biological target: T1, CYP2C8.1; test: Equilibrium spectral binding of ligands and redox cofactors to purified CYP2C8.1; conditions: read-out: KD of redox partner; spectral binding of redox partner to CYP2C8.1
[10] = substrate: CC(=O)O[C@H]1C(=O)[C@@]2(C)[C@H]([C@H](OC(=O)c3ccccc3)[C@]3(O)C[C@H](OC(=O)[C@H](O)[C@@H](NC(=O)c4ccccc4)c4ccccc4)C(C)=C1C3(C)C)[C@]1(OC(C)=O)CO[C@@H]1C[C@@H]2O
[11] = substrate: CCN(CC)Cc1cc(Nc2ccnc3cc(Cl)ccc23)ccc1O
[12] = substrate: CN(CCOc1ccc(CC2SC(=O)NC2=O)cc1)c1ccccn1
[13] = substrate: CCN(CC)Cc1cc(Nc2ccnc3cc(Cl)ccc23)ccc1O; remark: listed apart in the source
[14] = substrate: CN(CCOc1ccc(CC2SC(=O)NC2=O)cc1)c1ccccn1; remark: listed apart in the source
[15] = CER hydroxylation (M23 formation)

COCc1c(C(C)C)nc(C(C)C)c(/C=C/[C@@H](O)C[C@@H](O)CC(=O)O)c1-c1ccc(F)cc1 [CER, (3R,5S,6E)-7-[4-(4-Fluorophenyl)-5-(methoxymethyl)-2,6-bis(1-methylethyl)-3-pyridinyl]-3,5-dihydroxy-6-heptenoic Acid Sodium Salt]
Clint (CYP2C8.1 [1]; CER O-demethylation): 0.024 µM⁻¹ min⁻¹
Km (CYP2C8.1 [1]; CER O-demethylation): 24 ± 3 µM
kcat (CYP2C8.1 [1]; CER O-demethylation): 0.57 ± 0.02 nmol nmol P450^−1 min^−1
Km (CYP2C8.1 [1]; [15]): 23 ± 2 µM
kcat (CYP2C8.1 [1]; [15]): 0.22 ± 0.01 nmol nmol P450^−1 min^−1
Clint (CYP2C8.1 [1]; CER hydroxylation): 0.0096 µM⁻¹ min⁻¹
inhibition of CYP-activity by cytochrome b5 (CYP2C8): less evident
decrease of Km, red of CYP2C8.3 in comparison to CYP2C8.1 [2]: did not vary
Clint (CYP2C8.3 [3]; CER O-demethylation): 0.11 µM⁻¹ min⁻¹
Km (CYP2C8.3 [3]; CER O-demethylation): 13 ± 2 µM
kcat (CYP2C8.3 [3]; CER O-demethylation): 1.47 ± 0.06 (**) nmol nmol P450^−1 min^−1
Km (CYP2C8.3 [3]; [15]): 13 ± 2 µM
kcat (CYP2C8.3 [3]; [15]): 0.61 ± 0.03 (**) nmol nmol P450^−1 min^−1
Clint (CYP2C8.3 [3]; CER hydroxylation): 0.047 µM⁻¹ min⁻¹
% change in Bmax, first binding event (CYP2C8.3 [4]): +45%
% change in Bmax, second binding event (CYP2C8.3 [4]): +533%

CN(CCOc1ccc(CC2SC(=O)NC2=O)cc1)c1ccccn1 (centres unmarked) [RG, rosiglitazone]
Clint (CYP2C8.3 [5]; RG N-de-methylation): 0.33 µM⁻¹ min⁻¹
Clint (CYP2C8.3 [5]; RG p-hydroxylation): 0.29 µM⁻¹ min⁻¹
Ki (CYP2C8.3 [6]): 150000 nM
Clint (CYP2C8.1 [7]; RG N-de-methylation): 0.13 µM⁻¹ min⁻¹
Clint (CYP2C8.1 [7]; RG p-hydroxylation): 0.11 µM⁻¹ min⁻¹

CC(=O)O[C@H]1C(=O)[C@@]2(C)[C@H]([C@H](OC(=O)c3ccccc3)[C@]3(O)C[C@H](OC(=O)[C@H](O)[C@@H](NC(=O)c4ccccc4)c4ccccc4)C(C)=C1C3(C)C)[C@]1(OC(C)=O)CO[C@@H]1C[C@@H]2O [PAC, paclitaxel]
fold higher Clint (kcat/Km) for CYP2C8.3 compared to CYP2C8.1 (CYP2C8.3 [5]; DEAQ formation, p-hydroxy and N-de-methyl RG, PAC 6α-hydroxylation): 1.5 fold
Clint (CYP2C8.3 [5]; PAC 6α-hydroxylation): 0.16 µM⁻¹ min⁻¹
activity of CYP2C8.3 compared to CYP2C8.1 (CYP2C8.3 [8]): less active
Ki (CYP2C8.3 [6]): 103000 nM
inhibition of CYP-activity by cytochrome b5 (CYP2C8): strong inhibition
substrate inhibition (CYP2C8.1 [7]; CYP2C8.1): negligible
decrease of Km, red of CYP2C8.3 in comparison to CYP2C8.1 [2]: ~7 fold
% change in Bmax, first binding event (CYP2C8.3 [4]): +79%
% change in Bmax, second binding event (CYP2C8.3 [4]): −14%

B1: Cytochrome b5: expressed cytochrome b5; redox partner of CYP2C8 (protein, UniProt P00167 2-134, looked up)
Cytochrome b5: AEQSDEAVKYYTLEEIQKHNHSKSTWLILHHKVYDLTKFLEEHPGGEEVLREQAGGDATENFEDVGHSTDAREMSKTFIIGELHPDDRPKLNKPPETLITTIDSSSSWWTNWVIPAISAVAVALMYRLYMAED
Kd (CYP2C8.1 [9]): 34.4 ± 0.4 nM
% change in Bmax, redox partner binding (CYP2C8.3 [4]): +298%
Kd (CYP2C8.3 [4]): 16.8 ± 0.3 nM

B2: CYP2C8.1 (Homo sapiens) (protein)
chain: MEPFVVLVLCLSFMLLFSLWRQSCRRRKLPPGPTPLPIIGNMLQIDVKDICKSFTNFSKVYGPVFTVYFGMNPIVVFHGYEAVKEALIDNGEEFSGRGNSPISQRITKGLGIISSNGKRWKEIRRFSLTTLRNFGMGKRSIEDRVQEEAHCLVEELRKTKASPCDPTFILGCAPCNVICSVVFQKRFDYKDQNFLTLMKRFNENFRILNSPWIQVCNNFPLLIDCFPGTHNKVLKNVALTRSYIREKVKEHQASLDVNNPRDFIDCFLIKMEQEKDNQKSEFNIENLVGTVADLFVAGTETTSTTLRYGLLLLLKHPEVTAKVQEEIDHVIGRHRSPCMQDRSHMPYTDAVVHEIQRYSDLVPTGVPHAVTTDTKFRNYLIPKGTTIMALLTSVLHDDKEFPNPNIFDPGHFLDKNGNFKKSDYFMPFSAGKRICAGEGLARMELFLFLTTILQNFNLKSVDDLKNLNTTAVTKGIVSLPPSYQICFIPV
Km [10]: 3.7 ± 0.6 µM
kcat [10]: 0.00483 s⁻¹
kcat/Km [10]: 1830 M⁻¹ s⁻¹
Km [11]: 3.0 ± 0.4 µM
kcat [11]: 0.095 ± 0.00333 s⁻¹
kcat/Km [11]: 31700 M⁻¹ s⁻¹
Km [12]: 4.0 ± 0.8 µM and 2.9 ± 0.6 µM

B3: CYP2C8.3 (Homo sapiens; K399R/R139K) (protein)
chain: MEPFVVLVLCLSFMLLFSLWRQSCRRRKLPPGPTPLPIIGNMLQIDVKDICKSFTNFSKVYGPVFTVYFGMNPIVVFHGYEAVKEALIDNGEEFSGRGNSPISQRITKGLGIISSNGKRWKEIRRFSLTTLRNFGMGKKSIEDRVQEEAHCLVEELRKTKASPCDPTFILGCAPCNVICSVVFQKRFDYKDQNFLTLMKRFNENFRILNSPWIQVCNNFPLLIDCFPGTHNKVLKNVALTRSYIREKVKEHQASLDVNNPRDFIDCFLIKMEQEKDNQKSEFNIENLVGTVADLFVAGTETTSTTLRYGLLLLLKHPEVTAKVQEEIDHVIGRHRSPCMQDRSHMPYTDAVVHEIQRYSDLVPTGVPHAVTTDTKFRNYLIPKGTTIMALLTSVLHDDREFPNPNIFDPGHFLDKNGNFKKSDYFMPFSAGKRICAGEGLARMELFLFLTTILQNFNLKSVDDLKNLNTTAVTKGIVSLPPSYQICFIPV
Km [13]: 7.5 ± 0.5 µM
kcat [13]: 0.497 ± 0.0117 s⁻¹
kcat/Km [13]: 66700 M⁻¹ s⁻¹
Km [14]: 10.2 ± 0.9 µM and 8.0 ± 0.6 µM
Km [10]: 4.7 ± 0.7 (−) µM
kcat [10]: 0.0127 s⁻¹
kcat/Km [10]: 2670 M⁻¹ s⁻¹

B4: CPR: Rat cytochrome P450 reductase, expressed; redox partner of CYP2C8 (protein, UniProt P00388 2-678, looked up)
NADPH--cytochrome P450 …: GDSHEDTSATMPEAVAEEVSLFSTTDMVLFSLIVGVLTYWFIFRKKKEEIPEFSKIQTTAPPVKESSFVEKMKKTGRNIIVFYGSQTGTAEEFANRLSKDAHRYGMRGMSADPEEYDLADLSSLPEIDKSLVVFCMATYGEGDPTDNAQDFYDWLQETDVDLTGVKFAVFGLGNKTYEHFNAMGKYVDQRLEQLGAQRIFELGLGDDDGNLEEDFITWREQFWPAVCEFFGVEATGEESSIRQYELVVHEDMDVAKVYTGEMGRLKSYENQKPPFDAKNPFLAAVTANRKLNQGTERHLMHLELDISDSKIRYESGDHVAVYPANDSALVNQIGEILGADLDVIMSLNNLDEESNKKHPFPCPTTYRTALTYYLDITNPPRTNVLYELAQYASEPSEQEHLHKMASSSGEGKELYLSWVVEARRHILAILQDYPSLRPPIDHLCELLPRLQARYYSIASSSKVHPNSVHICAVAVEYEAKSGRVNKGVATSWLRAKEPAGENGGRALVPMFVRKSQFRLPFKSTTPVIMVGPGTGIAPFMGFIQERAWLREQGKEVGETLLYYGCRRSDEDYLYREELARFHKDGALTQLNVAFSREQAHKVYVQHLLKRDREHLWKLIHEGGAHIYVCGDARNMAKDVQNTFYDIVAEFGPMEHTQAVDYVKKLMTKGRYSLDVWS
Kd (CYP2C8.1 [9]): 29.4 ± 0.2 nM
% change in Bmax, redox partner binding (CYP2C8.3 [4]): +76%
Kd (CYP2C8.3 [4]): 20.7 ± 0.2 nM
